For 17 compounds, EC50 results are on record in US20250243171A1, “QUINAZOLINE COMPOUNDS FOR TREATMENT OF DISEASE” (Arthrosi Therapeutics, Inc., priority 2021, published 2025).

Common to all, as to test: EC50 assay: Ba/F3 stable cell proliferation (CCK-8, 72 h)
Format in all cases: cell-based

Assay [1] deals with T1, Ba/F3 stable cells (Homo sapiens, UniProt P00533, DUP767-769, cells depend on it).
T1 construct: EC50 Ba/F3-EGFR V769-D770insASV; other: Ba/F3-EGFR V769-D770insASV cells, 72 h, CCK-8
T1 sequence (P00533 with tags, fused parts or gaps DUP767-769): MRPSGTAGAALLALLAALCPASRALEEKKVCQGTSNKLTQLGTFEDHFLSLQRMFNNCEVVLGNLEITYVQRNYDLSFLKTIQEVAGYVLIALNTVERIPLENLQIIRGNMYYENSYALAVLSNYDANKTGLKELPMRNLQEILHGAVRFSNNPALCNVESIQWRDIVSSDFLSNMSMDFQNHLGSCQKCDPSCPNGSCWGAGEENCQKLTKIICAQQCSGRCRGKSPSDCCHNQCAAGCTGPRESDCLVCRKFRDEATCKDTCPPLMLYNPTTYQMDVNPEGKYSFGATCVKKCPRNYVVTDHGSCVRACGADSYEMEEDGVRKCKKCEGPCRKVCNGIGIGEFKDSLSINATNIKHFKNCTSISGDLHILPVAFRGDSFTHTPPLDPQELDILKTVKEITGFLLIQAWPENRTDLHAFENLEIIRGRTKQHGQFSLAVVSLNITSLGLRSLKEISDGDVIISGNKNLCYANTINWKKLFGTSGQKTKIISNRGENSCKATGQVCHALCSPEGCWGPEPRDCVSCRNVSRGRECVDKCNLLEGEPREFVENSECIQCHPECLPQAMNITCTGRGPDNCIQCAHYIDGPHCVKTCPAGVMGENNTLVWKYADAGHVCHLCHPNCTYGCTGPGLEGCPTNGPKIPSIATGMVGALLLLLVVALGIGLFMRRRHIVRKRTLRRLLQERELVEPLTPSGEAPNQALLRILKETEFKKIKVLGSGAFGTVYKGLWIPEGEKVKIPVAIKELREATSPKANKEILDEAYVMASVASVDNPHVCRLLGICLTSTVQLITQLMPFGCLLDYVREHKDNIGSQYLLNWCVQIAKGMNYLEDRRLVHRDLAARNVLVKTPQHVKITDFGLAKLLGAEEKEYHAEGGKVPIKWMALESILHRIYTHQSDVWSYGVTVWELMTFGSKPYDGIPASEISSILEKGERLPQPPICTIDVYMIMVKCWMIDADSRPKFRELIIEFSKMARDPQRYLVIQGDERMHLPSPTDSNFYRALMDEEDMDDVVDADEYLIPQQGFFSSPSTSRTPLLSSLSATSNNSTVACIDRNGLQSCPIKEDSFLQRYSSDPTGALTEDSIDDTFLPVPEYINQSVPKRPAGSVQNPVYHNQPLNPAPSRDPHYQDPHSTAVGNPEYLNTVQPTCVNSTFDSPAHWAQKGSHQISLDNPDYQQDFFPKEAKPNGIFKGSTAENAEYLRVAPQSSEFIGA
Conditions: Ba/F3-EGFR V769-D770insASV cells. Summed up: (§1)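 Ba/F3 stable cells were seeded at 4,000 cells/90 μL/well in 96-well plates and held 2 h at 37° C. in 5% CO2, then given 10 μL of serially titrated compound (0.1% DMSO final). After 72 h at 37° C., CCK-8 reagent was added for 4 hours and absorbance read at 450 nm to derive EC50.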

The target in assay [2] is T2, Ba/F3 stable cells (Homo sapiens, UniProt P00533, DUP771-773, cells depend on it).
T2 construct: EC50 Ba/F3-EGFR H773-V774insNPH; other: Ba/F3-EGFR H773-V774insNPH cells, 72 h, CCK-8
T2 sequence (P00533 with tags, fused parts or gaps DUP771-773): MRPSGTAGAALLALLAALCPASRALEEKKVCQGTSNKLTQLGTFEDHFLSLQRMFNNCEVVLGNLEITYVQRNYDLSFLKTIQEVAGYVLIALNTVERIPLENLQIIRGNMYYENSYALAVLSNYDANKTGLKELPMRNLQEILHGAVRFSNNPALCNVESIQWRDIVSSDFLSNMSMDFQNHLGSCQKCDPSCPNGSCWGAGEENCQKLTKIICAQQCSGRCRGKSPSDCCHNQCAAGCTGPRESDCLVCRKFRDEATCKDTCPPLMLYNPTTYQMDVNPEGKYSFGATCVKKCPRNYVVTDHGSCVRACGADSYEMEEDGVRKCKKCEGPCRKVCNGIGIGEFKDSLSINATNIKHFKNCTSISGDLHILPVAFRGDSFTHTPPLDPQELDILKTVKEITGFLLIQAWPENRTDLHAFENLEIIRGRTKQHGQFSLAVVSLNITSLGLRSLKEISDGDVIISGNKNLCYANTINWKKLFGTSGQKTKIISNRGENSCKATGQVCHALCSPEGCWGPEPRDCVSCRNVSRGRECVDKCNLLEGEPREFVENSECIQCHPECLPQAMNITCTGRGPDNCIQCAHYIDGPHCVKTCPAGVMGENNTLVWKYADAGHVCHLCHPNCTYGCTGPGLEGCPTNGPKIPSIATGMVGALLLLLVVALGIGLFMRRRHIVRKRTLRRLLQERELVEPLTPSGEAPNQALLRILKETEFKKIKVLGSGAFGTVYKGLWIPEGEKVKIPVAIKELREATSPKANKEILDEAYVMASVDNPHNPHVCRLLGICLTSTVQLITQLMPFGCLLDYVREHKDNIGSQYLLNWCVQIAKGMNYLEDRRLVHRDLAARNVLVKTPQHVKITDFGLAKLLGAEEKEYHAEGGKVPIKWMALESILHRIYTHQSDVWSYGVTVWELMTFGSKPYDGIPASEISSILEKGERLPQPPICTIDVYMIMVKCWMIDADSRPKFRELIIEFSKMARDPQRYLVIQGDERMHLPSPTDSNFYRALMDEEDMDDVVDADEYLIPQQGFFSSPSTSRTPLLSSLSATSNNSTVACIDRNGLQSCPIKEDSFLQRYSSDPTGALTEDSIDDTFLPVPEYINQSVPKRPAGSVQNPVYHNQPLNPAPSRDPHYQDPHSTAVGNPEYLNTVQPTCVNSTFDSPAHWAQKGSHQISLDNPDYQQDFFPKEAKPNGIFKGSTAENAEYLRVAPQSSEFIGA
As to conditions: Ba/F3-EGFR H773-V774insNPH cells. Put shortly:
as §1

Assay [3] deals with T3, Ba/F3 stable cells (Homo sapiens, UniProt P00533, DUP768-770, cells depend on it).
T3 construct: EC50 Ba/F3-EGFR D770-N771insSVD; other: Ba/F3-EGFR D770-N771insSVD cells, 72 h, CCK-8
Conditions: Ba/F3-EGFR D770-N771insSVD cells. Put shortly:
as §1

Assay [4] addresses T4, Ba/F3 stable cells (Homo sapiens, UniProt P00533, INS763FQEA, cells depend on it).
T4 construct: EC50 Ba/F3-EGFR A763-Y764insFQEA; other: Ba/F3-EGFR A763-Y764insFQEA cells, 72 h, CCK-8
Conditions: Ba/F3-EGFR A763-Y764insFQEA cells. Put shortly:
as §1

Assay [5] deals with T5, Ba/F3 stable cells (Homo sapiens, UniProt P00533, T790M/L858R, cells depend on it).
T5 construct: EC50 Ba/F3-EGFR L858R-T790M; other: Ba/F3-EGFR L858R-T790M cells, 72 h, CCK-8
As to conditions: Ba/F3-EGFR L858R-T790M cells. Summed up: as §1

Assay [6] concerns the target T6, Ba/F3 stable cells (Homo sapiens, UniProt P04626, DUP772-775, cells depend on it).
T6 construct: EC50 Ba/F3-HER2 A775-G776insYVMA; other: Ba/F3-HER2 A775-G776insYVMA cells, 72 h, CCK-8
Conditions: Ba/F3-HER2 A775-G776insYVMA cells. Put shortly:
as §1

T6 sequence (P04626 with tags, fused parts or gaps DUP772-775): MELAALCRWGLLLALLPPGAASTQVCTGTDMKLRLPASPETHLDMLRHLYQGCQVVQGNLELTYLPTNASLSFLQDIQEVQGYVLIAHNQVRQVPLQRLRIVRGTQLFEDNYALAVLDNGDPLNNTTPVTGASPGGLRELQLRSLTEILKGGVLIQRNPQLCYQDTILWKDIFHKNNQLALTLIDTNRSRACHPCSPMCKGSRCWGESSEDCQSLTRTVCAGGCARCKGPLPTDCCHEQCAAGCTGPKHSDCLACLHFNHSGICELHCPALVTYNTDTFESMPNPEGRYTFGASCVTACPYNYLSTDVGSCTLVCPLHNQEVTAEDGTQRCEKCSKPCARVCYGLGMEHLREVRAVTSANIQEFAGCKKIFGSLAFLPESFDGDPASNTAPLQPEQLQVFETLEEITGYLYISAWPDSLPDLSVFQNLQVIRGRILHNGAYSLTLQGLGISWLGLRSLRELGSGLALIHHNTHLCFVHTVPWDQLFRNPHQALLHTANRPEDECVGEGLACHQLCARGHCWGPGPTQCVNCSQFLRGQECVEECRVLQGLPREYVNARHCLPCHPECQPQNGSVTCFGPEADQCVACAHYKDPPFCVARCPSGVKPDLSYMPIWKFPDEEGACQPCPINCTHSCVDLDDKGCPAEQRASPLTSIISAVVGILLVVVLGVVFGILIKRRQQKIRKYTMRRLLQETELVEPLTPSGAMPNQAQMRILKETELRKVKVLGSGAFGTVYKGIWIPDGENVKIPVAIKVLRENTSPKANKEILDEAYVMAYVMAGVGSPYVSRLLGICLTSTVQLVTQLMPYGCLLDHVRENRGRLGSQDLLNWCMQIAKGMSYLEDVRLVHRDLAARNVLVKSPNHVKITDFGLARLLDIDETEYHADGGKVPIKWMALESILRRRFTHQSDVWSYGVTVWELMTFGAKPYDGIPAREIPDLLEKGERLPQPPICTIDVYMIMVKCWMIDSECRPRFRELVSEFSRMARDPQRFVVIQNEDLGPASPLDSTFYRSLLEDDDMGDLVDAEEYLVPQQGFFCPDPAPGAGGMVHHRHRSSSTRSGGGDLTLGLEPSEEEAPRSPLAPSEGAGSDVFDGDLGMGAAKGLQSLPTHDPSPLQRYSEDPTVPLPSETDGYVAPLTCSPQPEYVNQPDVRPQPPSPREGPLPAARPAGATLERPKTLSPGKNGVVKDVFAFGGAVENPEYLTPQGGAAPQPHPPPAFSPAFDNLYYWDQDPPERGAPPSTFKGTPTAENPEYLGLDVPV
T4 sequence (P00533 with tags, fused parts or gaps INS763FQEA): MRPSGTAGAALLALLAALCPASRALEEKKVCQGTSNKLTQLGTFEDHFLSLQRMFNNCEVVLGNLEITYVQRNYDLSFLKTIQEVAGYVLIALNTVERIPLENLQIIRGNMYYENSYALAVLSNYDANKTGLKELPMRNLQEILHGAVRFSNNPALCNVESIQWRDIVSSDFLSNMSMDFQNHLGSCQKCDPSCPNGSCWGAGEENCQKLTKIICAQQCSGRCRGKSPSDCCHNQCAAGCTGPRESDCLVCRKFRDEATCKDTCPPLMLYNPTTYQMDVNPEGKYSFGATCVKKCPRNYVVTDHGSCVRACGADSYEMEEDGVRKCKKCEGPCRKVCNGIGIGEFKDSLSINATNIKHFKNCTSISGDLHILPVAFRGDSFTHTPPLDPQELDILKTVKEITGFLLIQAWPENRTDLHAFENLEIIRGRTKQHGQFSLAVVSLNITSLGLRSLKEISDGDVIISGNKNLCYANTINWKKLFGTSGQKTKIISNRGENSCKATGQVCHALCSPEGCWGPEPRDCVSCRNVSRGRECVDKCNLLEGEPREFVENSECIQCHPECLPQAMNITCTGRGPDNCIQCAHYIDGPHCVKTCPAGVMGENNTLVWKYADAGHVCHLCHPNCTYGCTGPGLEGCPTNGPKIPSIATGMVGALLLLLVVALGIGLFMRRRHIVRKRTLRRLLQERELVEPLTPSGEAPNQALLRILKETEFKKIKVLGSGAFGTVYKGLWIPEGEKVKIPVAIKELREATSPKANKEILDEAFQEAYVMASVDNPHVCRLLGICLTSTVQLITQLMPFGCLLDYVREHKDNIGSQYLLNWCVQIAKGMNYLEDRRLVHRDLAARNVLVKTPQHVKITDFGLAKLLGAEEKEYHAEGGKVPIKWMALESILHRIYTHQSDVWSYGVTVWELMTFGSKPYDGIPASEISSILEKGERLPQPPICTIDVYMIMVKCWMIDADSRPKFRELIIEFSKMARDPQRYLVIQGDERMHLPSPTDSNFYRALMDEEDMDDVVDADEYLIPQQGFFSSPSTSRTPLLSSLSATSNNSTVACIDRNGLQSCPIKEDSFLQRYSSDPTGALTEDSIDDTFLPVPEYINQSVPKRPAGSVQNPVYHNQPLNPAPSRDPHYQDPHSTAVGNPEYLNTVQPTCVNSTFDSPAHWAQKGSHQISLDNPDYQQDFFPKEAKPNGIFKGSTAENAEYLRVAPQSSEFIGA

Broadly, the EC50 is the concentration that produces a half-maximal response. Lower therefore signals a more potent agent. With `C=CC(=O)N1CCC(Oc2cc3c(NC(=O)c4ccc(F)cc4)ncnc3cc2OC)CC1` [Compound 98, N-(6-((1-acryloylpiperidin-4-yl)oxy)-7-methoxyquinazolin-4-yl)-4-fluorobenzamide], the EC50 at Ba/F3 stable cells [1] is above 1 µM; at Ba/F3 stable cells [2], above 1 µM; on Ba/F3 stable cells [3], above 1 µM; on Ba/F3 stable cells [4] it was 0.2 to 1 µM; on Ba/F3 stable cells [5] it was above 1 µM; on Ba/F3 stable cells [6], above 1 µM.

On to `C=CC(=O)N[C@H]1C[C@@H](Oc2cc3c(Nc4ccc(Cl)c(Cl)c4F)ncnc3cc2O[C@H]2CCOC2)C1` [Compound 99, N-((1R,3s)-3-((4-((3,4-dichloro-2-fluorophenyl)amino)-7-(((S)-tetrahydrofuran-3-yl)oxy)quinazolin-6-yl)oxy)cyclobutyl)acrylamide], for which the EC50 was at most 0.2 µM at Ba/F3 stable cells [1]; at most 0.2 µM on Ba/F3 stable cells [2]; 0.2 to 1 µM on Ba/F3 stable cells [3]; at most 0.2 µM on Ba/F3 stable cells [4]; at most 0.2 µM at Ba/F3 stable cells [5]; at most 0.2 µM on Ba/F3 stable cells [6].

Consider `C=CC(=O)N[C@H]1C[C@@H](Oc2cc3c(Nc4ccc(Cl)c(Cl)c4F)ncnc3cc2OCCO)C1` [Compound 100, N-((1s,3s)-3-((4-((3,4-dichloro-2-fluorophenyl)amino)-7-(2-hydroxyethoxy)quinazolin-6-yl)oxy)cyclobutyl)acrylamide], for which the EC50 on Ba/F3 stable cells [1] was at most 0.2 µM; at Ba/F3 stable cells [2] it was 0.2 to 1 µM; on Ba/F3 stable cells [3] it was 0.2 to 1 µM; at Ba/F3 stable cells [4], at most 0.2 µM; at Ba/F3 stable cells [5] it was 0.2 to 1 µM; on Ba/F3 stable cells [6], 0.2 to 1 µM.

Turning to `C=CC(=O)N[C@H]1C[C@@H](Oc2cc3c(Nc4ccc(Cl)c(Cl)c4F)ncnc3cc2OCCN(C)C)C1` [Compound 101, N-((1s,3s)-3-((4-((3,4-dichloro-2-fluorophenyl)amino)-7-(2-(dimethylamino)ethoxy)quinazolin-6-yl)oxy)cyclobutyl)acrylamide], the EC50 is 0.2 to 1 µM on Ba/F3 stable cells [1]; above 1 µM at Ba/F3 stable cells [2]; above 1 µM on Ba/F3 stable cells [3]; at most 0.2 µM at Ba/F3 stable cells [4]; above 1 µM on Ba/F3 stable cells [5]; above 1 µM on Ba/F3 stable cells [6].

`[2H]C([2H])([2H])Oc1cc2ncnc(Nc3ccc(Cl)c(Cl)c3F)c2cc1O[C@H]1C[C@@H](NC(=O)C=C)C1` [Compound 102, N-((1s,3s)-3-((4-((3,4-dichloro-2-fluorophenyl)amino)-7-(methoxy-d3)quinazolin-6-yl)oxy)cyclobutyl)acrylamide]: the EC50 on Ba/F3 stable cells [1], on Ba/F3 stable cells [2], at Ba/F3 stable cells [3], on Ba/F3 stable cells [4], at Ba/F3 stable cells [5] and on Ba/F3 stable cells [6] was at most 0.2 µM throughout.

For the compound `C=CC(=O)N[C@H]1C[C@@H](Oc2cc3c(Nc4ccc(Cl)c(Cl)c4F)ncnc3cc2NC)C1` [Compound 103, N-((1s,3s)-3-((4-((3,4-dichloro-2-fluorophenyl)amino)-7-(methylamino)quinazolin-6-yl)oxy)cyclobutyl)acrylamide], the EC50 at Ba/F3 stable cells [1], at Ba/F3 stable cells [2], on Ba/F3 stable cells [3], on Ba/F3 stable cells [4], on Ba/F3 stable cells [5] and on Ba/F3 stable cells [6] was at most 0.2 µM each time.

Turning to `C=CC(=O)N[C@H]1C[C@@H](Oc2cc3c(Nc4ccc(Cl)c(Cl)c4F)ncnc3cc2OC2COC2)C1` [Compound 104, N-((1s,3s)-3-((4-((3,4-dichloro-2-fluorophenyl)amino)-7-(oxetan-3-yloxy)quinazolin-6-yl)oxy)cyclobutyl)acrylamide], the EC50 at Ba/F3 stable cells [1] was at most 0.2 µM; on Ba/F3 stable cells [2] it was at most 0.2 µM; at Ba/F3 stable cells [3], 0.2 to 1 µM; at Ba/F3 stable cells [4], at most 0.2 µM; on Ba/F3 stable cells [5], 0.2 to 1 µM; on Ba/F3 stable cells [6] it was 0.2 to 1 µM.

Take `C=CC(=O)N[C@H]1C[C@@H](Oc2cc3c(Nc4ccc(Cl)c(Cl)c4F)ncnc3cc2OCC)C1` [Compound 105, N-((1s,3s)-3-((4-((3,4-dichloro-2-fluorophenyl)amino)-7-ethoxyquinazolin-6-yl)oxy)cyclobutyl)acrylamide]: the EC50 at Ba/F3 stable cells [1], on Ba/F3 stable cells [2], on Ba/F3 stable cells [3], at Ba/F3 stable cells [4], on Ba/F3 stable cells [5] and at Ba/F3 stable cells [6] was at most 0.2 µM each time.

Consider `C=CC(=O)N1CCC(Oc2cc3c(NCc4cccc(Cl)c4)ncnc3cc2OC)CC1` [Compound 106, 1-(4-((4-((3-chlorobenzyl)amino)-7-methoxyquinazolin-6-yl)oxy)piperidin-1-yl)prop-2-en-1-one], for which the EC50 is at most 0.2 µM at Ba/F3 stable cells [1]; at most 0.2 µM on Ba/F3 stable cells [2]; at most 0.2 µM on Ba/F3 stable cells [3]; at most 0.2 µM on Ba/F3 stable cells [4]; 0.2 to 1 µM on Ba/F3 stable cells [5]; at most 0.2 µM at Ba/F3 stable cells [6].

In the case of `C=CC(=O)N1CCC(Oc2cc3c(OCc4cccc(Cl)c4)ncnc3cc2OC)CC1` [Compound 107, 1-(4-((4-((3-chlorobenzyl)oxy)-7-methoxyquinazolin-6-yl)oxy)piperidin-1-yl)prop-2-en-1-one], the EC50 at Ba/F3 stable cells [1] is 0.2 to 1 µM; on Ba/F3 stable cells [2] it was 0.2 to 1 µM; at Ba/F3 stable cells [3] it was 0.2 to 1 µM; at Ba/F3 stable cells [4], at most 0.2 µM; at Ba/F3 stable cells [5], 0.2 to 1 µM; on Ba/F3 stable cells [6], above 1 µM.

Consider `C=CC(=O)N1CCC(Oc2cc3c(NCc4ccc(Cl)cc4)ncnc3cc2OC)CC1` [Compound 108, 1-(4-((4-((4-chlorobenzyl)amino)-7-methoxyquinazolin-6-yl)oxy)piperidin-1-yl)prop-2-en-1-one], for which the EC50 is above 1 µM at Ba/F3 stable cells [1]; 0.2 to 1 µM on Ba/F3 stable cells [2]; above 1 µM on Ba/F3 stable cells [3]; at most 0.2 µM on Ba/F3 stable cells [4]; above 1 µM at Ba/F3 stable cells [5]; above 1 µM at Ba/F3 stable cells [6].

Consider `C=CC(=O)N1CCC(Oc2cc3c(NCc4ccc(Cl)cc4Cl)ncnc3cc2OC)CC1` [Compound 109, 1-(4-((4-((2,4-dichlorobenzyl)amino)-7-methoxyquinazolin-6-yl)oxy)piperidin-1-yl)prop-2-en-1-one], for which the EC50 on Ba/F3 stable cells [1] was above 1 µM; at Ba/F3 stable cells [2], above 1 µM; at Ba/F3 stable cells [3], above 1 µM; at Ba/F3 stable cells [4], 0.2 to 1 µM; on Ba/F3 stable cells [5], above 1 µM; on Ba/F3 stable cells [6], above 1 µM.

Consider `C=CC(=O)N1CCC(Oc2cc3c(NCc4ccccc4Cl)ncnc3cc2OC)CC1` [Compound 110, 1-(4-((4-((2-chlorobenzyl)amino)-7-methoxyquinazolin-6-yl)oxy)piperidin-1-yl)prop-2-en-1-one], for which the EC50 on Ba/F3 stable cells [1] is at most 0.2 µM; at Ba/F3 stable cells [2], at most 0.2 µM; at Ba/F3 stable cells [3] it was 0.2 to 1 µM; at Ba/F3 stable cells [4], at most 0.2 µM; at Ba/F3 stable cells [5], 0.2 to 1 µM; on Ba/F3 stable cells [6] it was at most 0.2 µM.

With `C=CC(=O)N1CCC(Oc2cc3c(NCc4cccc(F)c4)ncnc3cc2OC)CC1` [Compound 111, 1-(4-((4-((3-fluorobenzyl)amino)-7-methoxyquinazolin-6-yl)oxy)piperidin-1-yl)prop-2-en-1-one], the half-maximal effective concentration (EC50) is at most 0.2 µM on Ba/F3 stable cells [1]; at most 0.2 µM at Ba/F3 stable cells [2]; 0.2 to 1 µM on Ba/F3 stable cells [3]; at most 0.2 µM at Ba/F3 stable cells [4]; 0.2 to 1 µM at Ba/F3 stable cells [5]; at most 0.2 µM on Ba/F3 stable cells [6].

Take `C=CC(=O)N1CCC(Oc2cc3c(NCc4ccccc4F)ncnc3cc2OC)CC1` [Compound 112, 1-(4-((4-((2-fluorobenzyl)amino)-7-methoxyquinazolin-6-yl)oxy)piperidin-1-yl)prop-2-en-1-one]: the EC50 is 0.2 to 1 µM on Ba/F3 stable cells [1]; 0.2 to 1 µM at Ba/F3 stable cells [2]; above 1 µM at Ba/F3 stable cells [3]; at most 0.2 µM on Ba/F3 stable cells [4]; 0.2 to 1 µM on Ba/F3 stable cells [5]; at most 0.2 µM at Ba/F3 stable cells [6].

Take `C=CC(=O)N1CCC(Oc2cc3c(NCc4ccc(Cl)c(F)c4)ncnc3cc2OC)CC1` [Compound 113, 1-(4-((4-((4-chloro-3-fluorobenzyl)amino)-7-methoxyquinazolin-6-yl)oxy)piperidin-1-yl)prop-2-en-1-one]: the EC50 on Ba/F3 stable cells [1] is 0.2 to 1 µM; on Ba/F3 stable cells [2] it was 0.2 to 1 µM; on Ba/F3 stable cells [3], above 1 µM; on Ba/F3 stable cells [4], at most 0.2 µM; at Ba/F3 stable cells [5] it was above 1 µM; on Ba/F3 stable cells [6] it was at most 0.2 µM.

For `C=CC(=O)N1CCC(Oc2cc3c(NCc4ccc(F)c(Cl)c4)ncnc3cc2OC)CC1` [Compound 114, 1-(4-((4-((3-chloro-4-fluorobenzyl)amino)-7-methoxyquinazolin-6-yl)oxy)piperidin-1-yl)prop-2-en-1-one], the EC50 on Ba/F3 stable cells [1] was 0.2 to 1 µM; on Ba/F3 stable cells [2] it was 0.2 to 1 µM; at Ba/F3 stable cells [3], 0.2 to 1 µM; on Ba/F3 stable cells [4] it was at most 0.2 µM; at Ba/F3 stable cells [5] it was at most 0.2 µM; on Ba/F3 stable cells [6], at most 0.2 µM.
